The target in the experiment is AP2-associated protein kinase 1 (Homo sapiens, UniProt Q2M2I8). Put plainly: In Vitro AAK1 Enzyme Activity Assay. The procedure:
Compound stock solution (concentration: 10 mM, dissolved in DMSO) was diluted with DMSO to 0.2 mM and then diluted with DMSO in 5-fold gradient to obtain compound solutions with 10 concentrations. Subsequently, the compound solutions with different concentrations were diluted 50-fold in 1×kinase reaction buffer (containing 40 mM Tris, 20 mM MgCl2, 0.1% BSA and 0.5 mM DTT) for later use. AAK1 (Signalchem, Cat #A01-11G-10) was diluted with 1×kinase reaction buffer to 2-fold the final concentration (final concentrations: 30 nM and 28 nM). AAK1 was added to a 384-well white plate at 2 μL/well, and the compounds were then added at 1 μL/well. The plate was sealed with a plate-sealing film, centrifuged at 1000 rpm for 30 seconds and then placed at room temperature for 10 minutes. A mixed solution of ATP (Promega, Cat #V914B) and substrate Micro2 (GenScript, Cat #PE0890) was formulated at 4-fold the final concentration (for AAK1, the corresponding final concentrations of ATP: 15 μM and 5 μM, and the corresponding final concentration of Micro2: 0.1 mg/mL). To the reaction plate was added the mixed solution of ATP and the substrate at 1 μL/well.

AP2-associated protein kinase 1, sequence (Q2M2I8 whole entry): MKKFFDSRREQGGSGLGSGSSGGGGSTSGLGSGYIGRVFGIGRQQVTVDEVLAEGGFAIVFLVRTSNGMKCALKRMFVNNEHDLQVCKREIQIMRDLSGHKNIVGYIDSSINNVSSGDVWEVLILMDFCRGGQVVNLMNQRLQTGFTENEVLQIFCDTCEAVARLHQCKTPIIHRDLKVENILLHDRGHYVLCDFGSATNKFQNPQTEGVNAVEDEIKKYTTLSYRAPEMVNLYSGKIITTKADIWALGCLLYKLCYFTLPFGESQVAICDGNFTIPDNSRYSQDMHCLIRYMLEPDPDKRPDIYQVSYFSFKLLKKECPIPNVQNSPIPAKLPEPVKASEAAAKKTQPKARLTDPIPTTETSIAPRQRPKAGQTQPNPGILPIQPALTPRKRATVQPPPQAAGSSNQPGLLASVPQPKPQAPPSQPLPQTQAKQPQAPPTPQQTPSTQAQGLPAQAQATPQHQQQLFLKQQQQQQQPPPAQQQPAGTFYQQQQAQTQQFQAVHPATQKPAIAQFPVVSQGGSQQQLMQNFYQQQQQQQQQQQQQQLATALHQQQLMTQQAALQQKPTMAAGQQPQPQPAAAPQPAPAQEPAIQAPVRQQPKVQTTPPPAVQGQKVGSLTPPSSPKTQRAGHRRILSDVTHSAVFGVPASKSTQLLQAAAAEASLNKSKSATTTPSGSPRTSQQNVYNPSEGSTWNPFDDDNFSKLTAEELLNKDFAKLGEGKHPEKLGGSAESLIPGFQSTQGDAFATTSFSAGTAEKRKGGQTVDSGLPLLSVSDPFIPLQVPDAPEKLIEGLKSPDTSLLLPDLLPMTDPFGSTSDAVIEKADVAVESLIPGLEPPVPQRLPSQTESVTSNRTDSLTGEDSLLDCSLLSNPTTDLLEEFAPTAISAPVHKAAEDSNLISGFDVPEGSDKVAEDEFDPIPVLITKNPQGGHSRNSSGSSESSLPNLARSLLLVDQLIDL

Consider `C=C(C)C[C@](C)(N)COc1cnc(-c2ccnc(NC(=O)OC)c2)cc1C(F)F` [US20240343720, Compound 11], for which the midpoint of inhibition, the IC50, lay at 5.74 nM.

These data come from BindingDB's records for patent US20240343720 (Xizang Haisco Pharmaceutical, 2024).
